“And” between values parts separate entries of the source, which are not always exact repeats. Equal entries are not always repeated.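 Following 48 hours of exposure in 96-well plates, responses at five concentrations were used to interpolate endpoints linearly. GI50 = concentration required for 50% inhibition of growth. TGI: concentration producing complete growth inhibition.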 *1 amine or outer side, *2 acyl side, *3 side chain or, on linkers, in order; H or OH if unused. Where a SMILES comes first, the peptide text is derived from it. Bridges are numbered along the chain shown (N, C = ends). [ ]: non-standard residue; d: D form. The star is where a group is joined. Phe(3-Me) = Cc1cccc(C[C@H](N)C(=O)O)c1; NH(4-Cl-2-F-phenyl) = Fc1cc(Cl)ccc1N*; Pro(4R-Me) = C[C@H]1CN[C@H](C(=O)O)C1; Propanoyl(3-NMe2) = CN(C)CCC(=O)*; Hyp = O=C(O)[C@@H]1C[C@@H](O)CN1; aThr = C[C@H](O)[C@H](N)C(=O)O; Pip = O=C(O)[C@@H]1CCCCN1; CO = O=C([*:1])[*:2]
Legend:
Assay in all cases: inhibition of tumour cell growth, NCI panel, 48 h
[1] = test system: A498 renal
[2] = test system: ACHN renal
[3] = test system: DU-145 prostate
[4] = test system: MDA-MB-435
[5] = test system: MOLT-4 leukemia
[6] = test system: NCI-H460 lung
[7] = test system: RXF 393 renal
[8] = test system: SF-268 CNS

Row | SMILES | TGI [1] | TGI [2] | TGI [3] | TGI [4] | TGI [5] | TGI [6] | TGI [7] | TGI [8] | GI50 [2] | GI50 [3] | GI50 [4] | GI50 [5] | GI50 [7] | GI50 [8] | GI50 [1] | GI50 [6]
1 | O=C(O)/C=C\C(=O)Nc1ccc2c(c1)C(=O)c1cc(F)ccc1-2 | > 100 µM | > 100 µM | > 100 µM | > 100 µM | > 100 µM | > 100 µM | > 100 µM | > 100 µM |  |  |  |  |  |  |  | 
2 | Oc1cc2ccccc2cc1-c1n[nH]c(=S)n1-c1ccc(Cl)cc1 |  | > 100 µM | > 100 µM | > 100 µM | > 100 µM |  | 67.1 µM | 32.9 µM | 25.8 µM | 31.2 µM | 4.66 µM | 22.7 µM | 21.5 µM | 6.46 µM |  | 
3 | S=C(N/N=C(/c1ccccc1)c1ccccn1)Nc1cccc(Cl)c1 | 1.72 µM and 6.29 µM | 4.6 µM and 5.42 µM | 9.43 µM | 2.95 µM and 4.56 µM |  | 4.69 µM | 2.51 µM and 3.86 µM | 16.6 µM |  | 2.97 µM | 1.09 µM | 0.00303 µM |  | 2.33 µM | 0.195 µM | 0.612 µM
4 | O=S(=O)(NCCCNc1cc(-c2cn(-c3ccccc3)nc2-c2cccc(O)c2)ccn1)c1ccc(Cl)cc1 | 2.24 µM | 13.6 µM | 7.58 µM | 3.2 µM | 3.69 µM | 3.32 µM | 2.8 µM | 5.18 µM | 2.74 µM | 2.33 µM | 1.64 µM | 1.26 µM | 0.846 µM | 1.55 µM | 0.329 µM | 1.68 µM
5 | COc1ccc(CNc2nc(NCc3ccc(OC)cc3)c3n[nH]c(C(C)C)c3n2)cc1 | 16.7 µM | 20.7 µM | 36.5 µM | 11.1 µM | 14.4 µM | 31.8 µM | > 100 µM | 26.3 µM | 7.6 µM | 11.4 µM | 3.17 µM | 3.88 µM | 18.6 µM | 5.58 µM | 2.21 µM | 2.98 µM
6 | CCN1CCN(C(=O)[C@]23CCC(C)(C)C[C@@H]2C2=CC[C@@H]4[C@@]5(C)C/C(=C/c6cccnc6)C(=O)C(C)(C)[C@@H]5CC[C@@]4(C)[C@]2(C)CC3)CC1 | 3.53 µM | 10.5 µM | 3.88 µM | 3.11 µM | 5.2 µM | 2.93 µM | 2.77 µM | 4.79 µM | 2.6 µM | 1.83 µM | 1.48 µM | 1.03 µM | 1.42 µM | 1.59 µM | 1.66 µM | 1.39 µM
7 | O=C1C(Cl)=C(Nc2cccc(O)c2)C(=O)N1c1cccc(Cl)c1Cl |  | > 100 µM | 48 µM | 43.1 µM | 11.8 µM | 51.5 µM | 42.4 µM | 28.8 µM | 19.1 µM | 22.7 µM | 17.9 µM | 2.31 µM | 18.4 µM | 11.7 µM |  | 14.8 µM
8 | CN1CCCCC1CCN1c2ccccc2Sc2ccc(S(C)=O)cc21 (configuration not stated) | > 100 µM | > 100 µM | > 100 µM | > 100 µM | > 100 µM | > 100 µM | > 100 µM | > 100 µM |  |  |  |  |  |  |  | 
9 | Cc1cccc(C[C@H](NC(=O)Nc2ccc(Cl)cc2F)C(=O)N[C@@H]2C(=O)N3C[C@H](OC(=O)CCN(C)C)C[C@H]3C(=O)N3CCCC[C@H]3C(=O)N[C@@H](C)C(=O)N3C[C@H](C)C[C@H]3C(=O)O[C@H]2C)c1 ({NH(4-Cl-2-F-phenyl)-CO}-[Phe(3-Me)][aThr][Hyp](Propanoyl(3-NMe2))[Pip]A[Pro(4R-Me)]; ester 2-C) | 3.29 µM | 3.49 µM | 5.86 µM | 1.65 µM | 4.65 µM | 1.82 µM | 2.85 µM | 4.08 µM | 1.75 µM | 0.514 µM | 0.432 µM | 0.811 µM | 1.23 µM | 0.466 µM | 0.43 µM | 0.386 µM
10 | CCCCCCCCCC(CCCC(O)CC(=O)O)OC1OC(COC2OC(C)C(O)C(O)C2O)C(O)C(O)C1OC1OC(CO)C(O)C(O)C1OC1OC(C)C(O)C(O)C1O (configuration not stated) | > 40 µM | > 40 µM | > 40 µM | > 40 µM | > 40 µM | > 40 µM | > 40 µM | > 40 µM | > 40 µM | > 40 µM | > 40 µM | > 40 µM | > 40 µM | > 40 µM | > 40 µM | > 40 µM
11 | COc1ccc(CC2C3=C(CCCC3)CCN2C)cc1 (configuration not stated) | > 100 µM | > 100 µM | > 100 µM | > 100 µM | > 100 µM | > 100 µM | > 100 µM | > 100 µM |  |  |  |  |  |  |  | 
12 | CC[C@]12CCCN3CC[C@]4(C(=C(C(=O)OC)C1)Nc1ccccc14)[C@@H]32 | 32.4 µM | 28.6 µM | 35.2 µM | 41 µM | 43.7 µM | 38.3 µM | 30.4 µM | 37.8 µM | 15.3 µM | 16.8 µM | 11.1 µM | 18.8 µM | 15.5 µM | 18 µM | 16.1 µM | 18.1 µM
13 | COc1ccc(Cn2c(Br)c3c(c2-c2cc(OC)c(OC)c(OC)c2)CCc2sc(NC(C)=O)nc2-3)cc1 | 9.58 µM | 26.9 µM | > 100 µM | 4.36 µM | > 100 µM | > 100 µM | 10.7 µM | > 100 µM | 5.27 µM | 4.44 µM | 0.613 µM | 4.37 µM | 2.24 µM | 6.15 µM | 2.5 µM | 3.05 µM
14 | COC(=O)C1C2CCCN2OC1(C)CO (configuration not stated) | > 100 µM | > 100 µM | > 100 µM | > 100 µM | > 100 µM | > 100 µM |  | > 100 µM |  |  |  |  |  |  |  | 
15 | Cc1nc2cc(N)c(Cl)cc2[nH]1 | > 100 µM | > 100 µM | > 100 µM | > 100 µM | > 100 µM | > 100 µM |  | > 100 µM |  |  |  |  |  |  |  | 
16 | O=C(/C=C/c1cccnc1)c1ccccc1O | 31.4 µM | 37.6 µM | 31.6 µM | 37 µM | 73.5 µM | > 100 µM | 27.3 µM | 97.6 µM | 16.7 µM | 16 µM | 16.4 µM | 23 µM | 13.8 µM | 26.9 µM | 15.2 µM | 30.8 µM
17 | CC([O-])C(=O)[O-].NCC1CCC1CN.[Pt+4] (configuration not stated) |  | > 10 µM | > 10 µM | > 10 µM | > 10 µM | > 10 µM |  | > 10 µM | 6.19 µM | > 10 µM | > 10 µM | 8.71 µM |  | > 10 µM |  | > 10 µM
